Measurements taken from patent publication US10709692B2, “Isoxazolidine derived inhibitors of receptor interacting protein kinase 1 (RIPK1)” (Denali Therapeutics Inc., priority 2015, dated 2020).
Several values for one entry are separate records, joined by “and”; a condition that tells them apart may be missing. Equal values may be shown once.

Biological target: T1, receptor interacting protein kinase 1 (GST-hRIPK1 (8-327)) (Homo sapiens, UniProt Q13546)
T1 construct: GST-hRIPK1 (8-327) enzyme was generated by Proteros GmbH by Baculovirus expression system
T1 sequence (Q13546 8-327): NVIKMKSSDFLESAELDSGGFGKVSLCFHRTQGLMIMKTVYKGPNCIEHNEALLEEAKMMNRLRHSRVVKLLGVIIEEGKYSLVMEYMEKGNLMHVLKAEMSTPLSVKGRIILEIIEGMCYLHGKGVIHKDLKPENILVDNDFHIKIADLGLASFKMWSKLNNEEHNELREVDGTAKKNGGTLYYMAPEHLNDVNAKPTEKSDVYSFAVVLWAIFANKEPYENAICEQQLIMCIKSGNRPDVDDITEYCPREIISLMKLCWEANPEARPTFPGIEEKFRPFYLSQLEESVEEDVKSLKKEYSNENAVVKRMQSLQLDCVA
Experiment: Fluorescent Polarization Binding (FP Binding) assay
Details: 10 nM GST-hRIPK1 (8-327), 5 nM fluorescent-labeled ligand, 30 min at RT
How it was run: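 Displacement of 5 nM fluorescent ligand from 10 nM GST-hRIPK1 (8-327), 30 min at room temperature in pH 7.5 HEPES buffer, 1% DMSO. Fluorescence polarization read (ex 531/em 595 nm); IC50 fitted from percent inhibition and averaged over at least two independent experiments.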

| Compound | IC50 |
| --- | --- |
| CC1(C(=O)N2OCC[C@H]2c2ccc(F)cc2)CC(F)(F)C1 [Compound 155, (3S)-2-(3,3-difluoro-1-methylcyclobutane-carbonyl)-3-(4-fluorophenyl)-1,2-oxazolidine] | < 1000 nM |
| CC(C)(C(=O)N1OCC[C@H]1c1ccc(F)cc1)N1CCC1 [Compound 156, 2-(azetidin-1-yl)-1-[(3S)-3-(4-fluorophenyl)-1,2-oxazolidin-2-yl]-2-methylpropan-1-one] | 1000 to 10000 nM |
| CC(C)(C)C(=O)N1OCCC1c1ccnnc1 (stereo not drawn) [Compound 157, 2,2-dimethyl-1-[3-(pyridazin-4-yl)-1,2-oxazolidin-2-yl]propan-1-one] | 1000 to 10000 nM |
| N#Cc1ccc([C@@H]2CCON2C(=O)C2(C3CC3)CC2)cc1 [Compound 158, 4-[(3S)-2-(1-cyclopropylcyclopro-panecarbonyl)-1,2-oxazolidin-3-yl]benzonitrile] | < 1000 nM |
| O=C(N1OCC[C@H]1c1ccc(F)nc1)C1(C2CC2)CC1 [Compound 159, 5-[(3S)-2-(1-cyclopropylcyclopro-panecarbonyl)-1,2-oxazolidin-3-yl]-2-fluoropyridine] | < 1000 nM |
| O=C(C1C2COCC21)N1OCC[C@H]1c1ccc(F)nc1 (stereo partly drawn) [Compound 160, 2-fluoro-5-[(3S)-2-{3-oxabicyclo[3.1.0]hexane-6-carbonyl}-1,2-oxazolidin-3-yl]pyridine] | 1000 to 10000 nM |
| [2H]C([2H])([2H])C(C(=O)N1OCC[C@H]1c1ccc(F)nc1)(C([2H])([2H])[2H])C([2H])([2H])[2H] [Compound 161, 1-[(3S)-3-(6-fluoropyridin-3-yl)-1,2-oxazolidin-2-yl]-2,2-bis(^2H3)methyI(^2H3) propan-1-one] | < 1000 nM |
| CC(C)(COC(F)(F)F)C(=O)N1OCC[C@H]1c1ccc(F)nc1 [Compound 164, 1-[(3S)-3-(6-fluoropyridin-3-yl)-1,2-oxazolidin-2-yl]-2,2-dimethyl-3-(trifluoromethoxy) propan-1-one] | < 1000 nM |
| CC(C)(CC#N)C(=O)N1OCC[C@H]1c1ccc(F)nc1 [Compound 165, 4-[(3S)-3-(6-fluoropyridin-3-yl)-1,2-oxazolidin-2-yl]-3,3-dimethyl-4-oxobutanenitrile] | < 1000 nM |
| C[C@](O)(C(=O)N1OCC[C@H]1c1ccc(F)nc1)C(F)(F)F [Compound 166, (2S)-3,3,3-trifluoro-1-[(3S)-3-(6-fluoropyridin-3-yl)-1,2-oxazolidin-2-yl]-2-hydroxy-2-methylpropan-1-one] | 1000 to 10000 nM |
| O=C(C(C1CC1)C1CC1)N1OCC[C@H]1c1ccc(F)nc1 [Compound 167, 2,2-dicyclopropyl-1-[(3S)-3-(6-fluoropyridin-3-yl)-1,2-oxazolidin-2-yl]ethan-1-one] | < 1000 nM |
| O=C(N1OCC[C@H]1c1ccc(F)nc1)C1(C(F)F)CCC1 [Compound 168, 5-[(3S)-2-[1-(difluoromethyl)cyclo-butanecarbonyl]-1,2-oxazolidin-3-yl]-2-fluoropyridine] | < 1000 nM |
| CC(C)(C(=O)N1OCC[C@H]1c1ccc(F)nc1)C(F)F [Compound 169, 3,3-difluoro-1-[(3S)-3-(6-fluoropyridin-3-yl)-1,2-oxazolidin-2-yl]-2,2-dimethylpropan-1-one] | < 1000 nM |
| O=C(N1OCC[C@H]1c1ccc(F)nc1)C1(C(F)F)CC1 [Compound 170, 5-[(3S)-2-[1-(difluoromethyl)cyclo-propanecarbonyl]-1,2-oxazolidin-3-yl]-2-fluoropyridine] | < 1000 nM |
| CC(C)(CC#N)C(=O)N1OCC[C@H]1c1ccc(F)cc1 [Compound 171, 4-[(3S)-3-(4-fluorophenyl)-1,2-oxazolidin-2-yl]-3,3-dimethyl-4-oxobutanenitrile] | < 1000 nM and 11 nM |
| N#CC1(C(=O)N2OCC[C@H]2c2ccc(F)cc2)CC2(COC2)C1 [Compound 172, 6-[(3S)-3-(4-fluorophenyl)-1,2-oxazolidine-2-carbonyl]-2-oxaspiro[3.3]heptane-6-carbonitrile] | < 1000 nM |
| [2H]C([2H])([2H])C(C(=O)N1OCC[C@H]1c1ccc(F)cc1)(C([2H])([2H])[2H])C([2H])([2H])[2H] [Compound 173, 1-[(3S)-3-(4-fluorophenyl)-1,2-oxazolidin-2-yl]-2,2-bis(^2H3)methyl(^2H3) propan-1-one] | < 1000 nM |
| CC(C)(C)C(=O)N1OCC[C@H]1c1cncc(Cl)c1 [Compound 174, 1-[(3S)-3-(5-chloropyridin-3-yl)-1,2-oxazolidin-2-yl]-2,2-dimethylpropan-1-one] | < 1000 nM |
| CC(C)(C)C(=O)N1OCC[C@H]1c1ccnc(C(F)F)c1 [Compound 175, 1-[(3S)-3-[2-(difluoromethyl)pyridin-4-yl]-1,2-oxazolidin-2-yl]-2,2-dimethylpropan-1-one] | < 1000 nM |
| CC(C)(COC(F)(F)F)C(=O)N1OCC[C@H]1c1ccc(F)cc1 [Compound 176, 1-[(3S)-3-(4-fluorophenyl)-1,2-oxazolidin-2-yl]-2,2-dimethyl-3-(trifluoromethoxy) propan-1-one] | < 1000 nM |
| CC(C)(COC(F)(F)F)C(=O)N1OCC[C@H]1c1cncc(Cl)c1 [Compound 177, 1-[(3S)-3-(5-chloropyridin-3-yl)-1,2-oxazolidin-2-yl]-2,2-dimethyl-3-(trifluoromethoxy) propan-1-one] | < 1000 nM |
| CC(C)(Cn1cccn1)C(=O)N1OCC[C@H]1c1ccc(F)cc1 [Compound 178, 1-[(3S)-3-(4-fluorophenyl)-1,2-oxazolidin-2-yl]-2,2-dimethyl-3-(1H-pyrazol-1-yl)propan-1-one] | < 1000 nM |
| CC(C)(CC#N)C(=O)N1OCC[C@H]1c1ccc(C#N)cc1 [Compound 181, 4-[(3S)-2-(3-cyano-2,2-dimethylpropanoyl)-1,2-oxazolidin-3-yl]benzonitrile] | < 1000 nM |
| CC(C)(C#N)C(=O)N1OCC[C@H]1c1ccc(F)cc1 [Compound 182, 3-[(3S)-3-(4-fluorophenyl)-1,2-oxazolidin-2-yl]-2,2-dimethyl-3-oxopropanenitrile] | < 1000 nM |
| N#Cc1ccc([C@@H]2CCON2C(=O)C2(C(F)F)CC2)cc1 [Compound 187, 4-[(3S)-2-[1-(difluoromethyl)cyclo-propanecarbonyl]-1,2-oxazolidin-3-yl]benzonitrile] | < 1000 nM |
| CC(C)(C)C(=O)N1OCC[C@H]1c1cc[nH]n1 [Compound 190, 2,2-dimethyl-1-[(3S)-3-(1H-pyrazol-5-yl)-1,2-oxazolidin-2-yl]propan-1-one] | < 1000 nM |
| C[C@@]1(C(=O)N2OCC[C@H]2c2ccc(F)cc2)CCC(=O)N1 [Compound 191, (5S)-5-[(3S)-3-(4-fluorophenyl)-1,2-oxazolidine-2-carbonyl]-5-methylpyrrolidin-2-one] | < 1000 nM |
| CC(C)(C)C(=O)N1OCC[C@H]1c1cc(C#N)ccn1 [Compound 192, 2-[(3S)-2-(2,2-dimethylpropanoyl)-1,2-oxazolidin-3-yl]pyridine-4-carbonitrile] | < 1000 nM |
| CC(C)(C(=O)N1OCC[C@H]1c1ccc(F)cc1)C1CC1 [Compound 193, 2-cyclopropyl-1-[(3S)-3-(4-fluorophenyl)-1,2-oxazolidin-2-yl]-2-methylpropan-1-one] | < 1000 nM and 5 nM |
| CC(C)(C(=O)N1OCC[C@H]1c1ccc(F)cc1)S(C)(=O)=O [Compound 194, 1-[(3S)-3-(4-fluorophenyl)-1,2-oxazolidin-2-yl]-2-methanesulfonyl-2-methylpropan-1-one] | 1000 to 10000 nM |
